Counter-ions that a name gives are not always drawn. Like-named read-outs stand apart in the source and are kept apart here.
Experiments:
[1] = test system: iCell endothelial cells (human iPSC-derived ECs); assay: Tube formation (tubulogenesis) assay in iCell endothelial cells, 18 h; format: cell-based; conditions: Homo sapiens, Endothelial cell, iPSC-EC tube formation, 18 hr; for activity at 0.1 µM: 0.10 µM; for minimal effective concentration: top concentration 100.00 µM
Procedure, shortened: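 iCell ECs (passages 1–5) seeded 7,500 cells/well on reduced-growth-factor Geltrex in starvation medium, exposed overnight at 37°C to compounds in triplicate concentration–response (0.5% DMSO vehicle). Calcein AM staining, 4× imaging, angiogenesis image analysis; readouts normalized to vehicle, four-parameter logistic fit, POD at 1 SD of vehicle; 100 μM assigned NOAEL if no response.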

[2] = test system: HUVECs; assay: Tube formation (tubulogenesis) assay in HUVECs, 18 h; format: cell-based, human; conditions: Homo sapiens, HUVEC, 18 h, HUVECs; for activity at 0.1 µM: 0.10 µM; for minimal effective concentration: top concentration 100.00 µM
Procedure, shortened: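 HUVECs (passage 1–5) seeded on reduced-growth-factor basement membrane and exposed to compounds overnight at 37°C, 5% CO2, in 2× maintenance medium with 12.5 ng/mL VEGF; 0.5% DMSO vehicle. Calcein AM-stained tube networks imaged and analysed; vehicle-normalized readouts fit to four-parameter logistic, POD set at one SD of vehicle means.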

[3] = 0.00 µM control = 100.00, read-out: endo.mtl.18hr
[4] = 0.00 µM control = 100.00, read-out: endo.tlps.18hr
[5] = 0.00 µM control = 100.00, read-out: endo.tta.18hr
[6] = 0.00 µM control = 100.00, read-out: endo.ttl.18hr
[7] = 0.00 µM = 100.00, read-out: huvec.mtl.18hr
[8] = 0.00 µM = 100.00, read-out: huvec.tlps.18hr
[9] = 0.00 µM = 100.00, read-out: huvec.tta.18hr
[10] = 0.00 µM = 100.00, read-out: huvec.ttl.18hr

O=S(=O)(O)Oc1cc(-c2ccccc2)ccc1Cl [3-yl PCB 3 sulfate]
activity at 0.01 µM [1, 3]: 102% | activity at 0.01 µM [1, 4]: 104% | activity at 0.01 µM [1, 5]: 152% | activity at 0.01 µM [1, 6]: 139% | activity at 0.1 µM [1, 3]: 88.6% | activity at 0.1 µM [1, 4]: 127% | activity at 0.1 µM [1, 5]: 93.5% | activity at 0.1 µM [1, 6]: 88.4% | activity at 1 µM [1, 3]: 92.1% | activity at 1 µM [1, 4]: 89.4% | activity at 1 µM [1, 5]: 106% | activity at 1 µM [1, 6]: 101% | activity at 10 µM [1, 3]: 75.1% | activity at 10 µM [1, 4]: 68.7% | activity at 10 µM [1, 5]: 61.4% | activity at 10 µM [1, 6]: 59.2% | activity at 100 µM [1, 3]: 83.7% | activity at 100 µM [1, 4]: 46.7% | activity at 100 µM [1, 5]: 78.8% | activity at 100 µM [1, 6]: 79% | minimal effective concentration ([1]; read-out: endo.mtl.18hr POD): 100 µM | minimal effective concentration ([1]; read-out: endo.tlps.18hr POD): 6.75 µM | minimal effective concentration ([1]; read-out: endo.tta.18hr POD): 100 µM | minimal effective concentration ([1]; read-out: endo.ttl.18hr POD): 100 µM | activity at 0.01 µM [2, 7]: 95% | activity at 0.01 µM [2, 8]: 89.1% | activity at 0.01 µM [2, 9]: 78% | activity at 0.01 µM [2, 10]: 73.3% | activity at 0.1 µM [2, 7]: 100% | activity at 0.1 µM [2, 8]: 109% | activity at 0.1 µM [2, 9]: 141% | activity at 0.1 µM [2, 10]: 137% | activity at 1 µM [2, 7]: 94.1% | activity at 1 µM [2, 8]: 116% | activity at 1 µM [2, 9]: 124% | activity at 1 µM [2, 10]: 123% | activity at 10 µM [2, 7]: 91.9% | activity at 10 µM [2, 8]: 112% | activity at 10 µM [2, 9]: 114% | activity at 10 µM [2, 10]: 110% | activity at 100 µM [2, 7]: 62.3% | activity at 100 µM [2, 8]: 58.1% | activity at 100 µM [2, 9]: 63.7% | activity at 100 µM [2, 10]: 61.1% | minimal effective concentration ([2]; read-out: huvec.mtl.18hr POD): 11.5 µM | minimal effective concentration ([2]; read-out: huvec.tlps.18hr POD): 65.8 µM | minimal effective concentration ([2]; read-out: huvec.tta.18hr POD): 100 µM | minimal effective concentration ([2]; read-out: huvec.ttl.18hr POD): 52.1 µM

Oc1ccc(-c2ccc(Cl)cc2)cc1 [4'-OH PCB3]
activity at 0.01 µM [1, 3]: 87.5% | activity at 0.01 µM [1, 4]: 80.1% | activity at 0.01 µM [1, 5]: 97.5% | activity at 0.01 µM [1, 6]: 93.3% | activity at 0.1 µM [1, 3]: 89.4% | activity at 0.1 µM [1, 4]: 84.6% | activity at 0.1 µM [1, 5]: 89.9% | activity at 0.1 µM [1, 6]: 86.6% | activity at 1 µM [1, 3]: 90.3% | activity at 1 µM [1, 4]: 73.5% | activity at 1 µM [1, 5]: 82.7% | activity at 1 µM [1, 6]: 81.3% | activity at 10 µM [1, 3]: 55.5% | activity at 10 µM [1, 4]: 31.4% | activity at 10 µM [1, 5]: 35.4% | activity at 10 µM [1, 6]: 35% | activity at 100 µM [1, 3]: 49.2% | activity at 100 µM [1, 4]: 11.3% | activity at 100 µM [1, 5]: 0.34% | activity at 100 µM [1, 6]: 0.48% | minimal effective concentration ([1]; read-out: endo.mtl.18hr POD): 1.21 µM | minimal effective concentration ([1]; read-out: endo.tlps.18hr POD): 0.19 µM | minimal effective concentration ([1]; read-out: endo.tta.18hr POD): 1.16 µM | minimal effective concentration ([1]; read-out: endo.ttl.18hr POD): 1.12 µM | activity at 0.01 µM [2, 7]: 101% | activity at 0.01 µM [2, 8]: 106% | activity at 0.01 µM [2, 9]: 113% | activity at 0.01 µM [2, 10]: 119% | activity at 0.1 µM [2, 7]: 94% | activity at 0.1 µM [2, 8]: 89.7% | activity at 0.1 µM [2, 9]: 88.3% | activity at 0.1 µM [2, 10]: 93.3% | activity at 1 µM [2, 7]: 93.7% | activity at 1 µM [2, 8]: 76.2% | activity at 1 µM [2, 9]: 98.5% | activity at 1 µM [2, 10]: 102% | activity at 10 µM [2, 7]: 72.2% | activity at 10 µM [2, 8]: 66.1% | activity at 10 µM [2, 9]: 68.8% | activity at 10 µM [2, 10]: 71.7% | activity at 100 µM [2, 7]: 76.3% | activity at 100 µM [2, 8]: 34% | activity at 100 µM [2, 9]: 11.6% | activity at 100 µM [2, 10]: 8.84% | minimal effective concentration ([2]; read-out: huvec.mtl.18hr POD): 1.21 µM | minimal effective concentration ([2]; read-out: huvec.tlps.18hr POD): 0.51 µM | minimal effective concentration ([2]; read-out: huvec.tta.18hr POD): 5.36 µM | minimal effective concentration ([2]; read-out: huvec.ttl.18hr POD): 5.16 µM

From paper PMC7377239, “Cardiovascular Effects of Polychlorinated Biphenyls and Their Major Metabolites” (Environmental Health Perspectives, 2020)
